Literature values as cited in US11207297B2, “Liquid pharmaceutical composition of clonidine” (SYRI LTD, priority 2016, dated 2021).

Conditions: after oral administration

Clc1cccc(Cl)c1N=C1NCCN1 [clonidine, N-(2,6-dichlorophenyl)-4,5-dihydro-1H-imidazol-2-amine]
Absorption from the gastrointestinal tract: almost completely absorbed
